Laboratory results published in patent US9096589B2, “Heteroaromatic phenylimidazole derivatives as PDE10A enzyme inhibitors” (H. Lundbeck A/S, priority 2009, dated 2015).

How the values were obtained:
PDE10A = PDE10A (Homo sapiens (Human), UniProt Q9Y233); test: PDE10A inhibition assay; type: biochemical
Summary of the method: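 Human PDE10A catalytic domain (aa 440-779) was expressed in E. coli BL21(DE3), with enzyme set to convert 20-25% of substrate. Reactions used 5 nM [3H]cAMP in 50 mM HEPES pH 7.6, 10 mM MgCl2, 0.02% Tween20 and 0.1 mg/ml BSA for 1 h at rt, read by yttrium silicate SPA. IC50 is relative to the uninhibited control.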

rats [1] = conditions: cited from earlier work
rats [2] = conditions: cited from earlier work; remark: listed apart in the source
rats [3] = conditions: cited from earlier work; remark: listed apart in the source

Chain of PDE10A (Q9Y233 716-1055): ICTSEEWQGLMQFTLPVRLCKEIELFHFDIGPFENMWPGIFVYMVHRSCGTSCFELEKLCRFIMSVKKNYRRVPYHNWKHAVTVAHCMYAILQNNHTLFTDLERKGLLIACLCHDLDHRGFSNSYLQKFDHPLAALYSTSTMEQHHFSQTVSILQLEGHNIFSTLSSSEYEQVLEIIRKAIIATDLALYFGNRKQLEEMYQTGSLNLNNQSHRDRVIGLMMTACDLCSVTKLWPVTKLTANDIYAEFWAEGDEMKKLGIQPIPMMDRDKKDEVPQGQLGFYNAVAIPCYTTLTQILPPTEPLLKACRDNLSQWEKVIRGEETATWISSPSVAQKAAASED

Row | IC50 (PDE10A) | Structure (SMILES) | further results
1 | 70 nM | CNC[C@H](O)Cn1cc(-c2cccs2)nc1CCc1nc2cccc(C)n2n1 [(S)-1-Methylamino-3-{2-[2-(5-methyl-[1,2,4]triazolo[1,5-a]pyridin-2-yl)-ethyl]-4-thiophen-2-yl-imidazol-1-yl}-propan-2-ol] | –
2 | 16 nM | Cc1cccc2nc(CCc3nc(-c4cccs4)cn3C[C@@H](O)CN(C)CCO)nn12 [(S)-1-[(2-Hydroxy-ethyl)-methyl-amino]-3-{2-[2-(5-methyl-[1,2,4]triazolo[1,5-a]pyridin-2-yl)-ethyl]-4-thiophen-2-yl-imidazol-1-yl}-propan-2-ol] | –
3 | 14 nM | Cc1cccc2nc(CCc3nc(-c4cccs4)cn3C[C@@H](O)CN3CCOCC3)nn12 [(S)-1-{2-[2-(5-Methyl-[1,2,4]triazolo[1,5-a]pyridin-2-yl)-ethyl]-4-thiophen-2-yl-imidazol-1-yl}-3-morpholin-4-yl-propan-2-ol] | –
4 | 58 nM | Cc1cccc2nc(CCc3nc(-c4cccs4)cn3C[C@@H](O)CN3CCCC3)nn12 [(S)-1-{2-[2-(5-Methyl-[1,2,4]triazolo[1,5-a]pyridin-2-yl)-ethyl]-4-thiophen-2-yl-imidazol-1-yl}-3-pyrrolidin-1-yl-propan-2-ol] | –
5 | 8.8 nM | Cc1cc(C)n2cc(CCc3nc(-c4cccs4)cn3[C@@H](C)CO)nc2n1 [(S)-2-{2-[2-(5,7-Dimethyl-imidazo[1,2-a]pyrimidin-2-yl)-ethyl]-4-thiophen-2-yl-imidazol-1-yl}-propan-1-ol] | –
6 | 6.4 nM | Cc1cccc2nc(CCc3nc(-c4cccs4)cn3[C@@H](C)CO)nn12 [(S)-2-{2-[2-(5-Methyl-[1,2,4]triazolo[1,5-a]pyridin-2-yl)-ethyl]-4-thiophen-2-yl-imidazol-1-yl}-propan-1-ol] | –
7 | 51 nM | CNCC[C@H](O)Cn1cc(-c2cccs2)nc1CCc1nc2cccc(C)n2n1 [(S)-4-Methylamino-1-{2-[2-(5-methyl-[1,2,4]triazolo[1,5-a]pyridin-2-yl)-ethyl]-4-thiophen-2-yl-imidazol-1-yl}-butan-2-ol] | –
8 | 12 nM | Cc1cnc(C)n2nc(CCc3nc(-c4nccs4)cn3C)nc12 [,8-Dimethyl-2-[2-(1-methyl-4-thiazol-2-yl-1H-imidazol-2-yl)-ethyl]-[1,2,4]triazolo[1,5-c]pyrimidine] | –
9 | – | COc1ccc(Cc2nccc3cc(OC)c(OC)cc23)cc1OC [Papaverine, papaverine] | reduction of amphetamine induced hyperactivity (rats [1]): insignificant; hyperactivity induced by PCP (rats [2]): reduced hyperactivity; catalepsy on its own (rats [3]; alone): did not cause catalepsy on its own; effect on the cataleptic effect of the D2 receptor antagonist haloperidol (rats [3]; with haloperidol): potentiated the cataleptic effect
10 | 8.8 nM | Cc1cccc2nc(CCc3nc(-c4cccs4)cn3C[C@@H](O)CN(C)CC#N)nn12 [[((S)-2-Hydroxy-3-{2-[2-(5-methyl-[1,2,4]triazolo[1,5-a]pyridin-2-yl)-ethyl]-4-thiophen-2-yl-imidazol-1-yl}-propyl)-methyl-amino]-acetonitrile] | –
